Test results as given in PubChem BioAssay (NCI).
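Where inhibition never reached the appropriate level, the endpoint shown equals the highest concentration tested. Otherwise, values were interpolated linearly from a five-concentration, 48-hour dose response in 96-well plates. At the TGI there is no net growth.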

How the values were obtained:
Assay in all cases: NCI anticancer screen, dose series, 48 h
TK-10 renal = tested on: TK-10 renal
SK-MEL-28 melanoma = tested on: SK-MEL-28 melanoma
NCI-H23 lung = tested on: NCI-H23 lung
HOP-62 NSCLC = tested on: HOP-62 NSCLC
NCI-H226 lung = tested on: NCI-H226 lung
SW-620 colon = tested on: SW-620 colon
COLO 205 colon = tested on: COLO 205 colon
MDA-N = tested on: MDA-N
SNB-19 CNS = tested on: SNB-19 CNS
NCI-H460 lung = tested on: NCI-H460 lung
A549 NSCLC = tested on: A549 NSCLC
PC-3 prostate = tested on: PC-3 prostate
EKVX NSCLC = tested on: EKVX NSCLC
MOLT-4 leukemia = tested on: MOLT-4 leukemia
LOX IMVI melanoma = tested on: LOX IMVI melanoma
HCT-15 colon = tested on: HCT-15 colon
SF-539 CNS = tested on: SF-539 CNS
KM12 colon = tested on: KM12 colon
HS 578T breast = tested on: HS 578T breast
NCI/ADR-RES ovarian = tested on: NCI/ADR-RES ovarian

| Structure (SMILES) | TGI (TK-10 renal) [µM] | TGI (SK-MEL-28 melanoma) [µM] | TGI (NCI-H23 lung) [µM] | TGI (HOP-62 NSCLC) [µM] | TGI (NCI-H226 lung) [µM] | TGI (SW-620 colon) [µM] | TGI (COLO 205 colon) [µM] | TGI (MDA-N) [µM] | TGI (SNB-19 CNS) [µM] | TGI (NCI-H460 lung) [µM] | TGI (A549 NSCLC) [µM] | TGI (PC-3 prostate) [µM] | TGI (EKVX NSCLC) [µM] | TGI (MOLT-4 leukemia) [µM] | TGI (LOX IMVI melanoma) [µM] | TGI (HCT-15 colon) [µM] | TGI (SF-539 CNS) [µM] | TGI (KM12 colon) [µM] | TGI (HS 578T breast) [µM] | TGI (NCI/ADR-RES ovarian) [µM] |
| --- | --- | --- | --- | --- | --- | --- | --- | --- | --- | --- | --- | --- | --- | --- | --- | --- | --- | --- | --- | --- |
| C=C1C(=O)OC2C3C(=C)[C@@H](OC(C)=O)CC3C(C)=CC(OC(=O)C(C)(O)C(C)OC(C)=O)[C@@H]12 (stereo partly specified) | 18.4 | 27.2 | 27.3 | 46.6 | 48.4 | 10.7 | 15.9 | 18.5 | > 100 | 44 | 77.8 | 30.7 | 30.2 | > 100 | 19.4 | 22 | 31.9 | 28.5 | 40.9 | – |
| c1ccc2c(c1)SCCCSCCCS2 | > 100 | > 100 | > 100 | > 100 | – | > 100 | > 100 | > 100 | > 100 | > 100 | > 100 | > 100 | > 100 | > 100 | > 100 | > 100 | > 100 | > 100 | – | > 100 |
| COc1ccc(OC)c(CC(=O)c2ccc(O)c(C(=O)NCCc3ccc(F)cc3)c2)c1 | 45.8 | > 100 | 14.2 | 5.63 | – | > 100 | 31.7 | – | 52.5 | 34 | 37.6 | – | 36.2 | 17.4 | 27 | 17.1 | – | 13.9 | 8.69 | 8.79 |
| O=C(O)C1CCCCN1CCc1c[nH]c2ccccc12 (stereo unspecified) | > 100 | > 100 | > 100 | > 100 | > 100 | > 100 | > 100 | > 100 | > 100 | > 100 | > 100 | > 100 | > 100 | > 100 | > 100 | > 100 | > 100 | > 100 | – | > 100 |
| CC1C2CC(CC2=O)C1(C)C (stereo unspecified) | > 100 | > 100 | > 100 | > 100 | > 100 | > 100 | > 100 | > 100 | > 100 | > 100 | > 100 | > 100 | > 100 | > 100 | – | – | > 100 | > 100 | > 100 | – |
| N#Cc1c(-c2ccccc2)cc(Nc2ccc(F)cc2)n2c1nc1ccccc12 | > 54 | > 100 | > 27.4 | 40.8 | > 24 | > 100 | 2.97 | – | > 100 | > 100 | > 100 | 4.97 | > 29.1 | > 100 | > 30.4 | > 30.4 | > 22.7 | > 100 | 4.68 | 13 |
| Nc1nc(SCC(=O)c2ccccc2)nc2nc3c(c(-c4ccccc4)c12)CCCC3 | > 100 | 61.9 | > 100 | > 100 | 62.7 | – | – | > 100 | > 100 | > 100 | > 100 | – | > 100 | > 100 | 61.7 | > 100 | > 100 | > 100 | 64 | > 100 |
| COc1ccc(/C=N/Nc2nc3ccccc3c(=O)n2-c2ccccc2)cc1 | > 100 | > 100 | > 100 | > 100 | > 100 | > 100 | > 100 | > 100 | > 100 | > 100 | > 100 | > 100 | > 100 | > 100 | > 100 | > 100 | > 100 | > 100 | – | > 100 |
| O=C(O)c1ccccc1/C=C1\Cc2ccc3c(c2C1=O)CCCC3 | > 100 | > 100 | 75.4 | > 100 | 82.7 | > 100 | > 100 | – | > 100 | > 100 | > 100 | – | > 100 | 58.6 | > 100 | > 100 | 81.6 | > 100 | 81.2 | > 100 |
| COc1ccc([N+](=O)[O-])cc1[I+]c1cc([N+](=O)[O-])ccc1OC | > 100 | 21.8 | > 100 | > 100 | > 100 | > 100 | > 100 | – | > 100 | 80.3 | > 100 | > 100 | > 100 | – | 73.1 | > 100 | > 100 | 94.7 | > 100 | > 100 |
| Brc1ccc(C2(N3CCCCC3)CCCCC2)s1 | > 100 | – | > 100 | > 100 | – | > 100 | – | > 100 | > 100 | 84.8 | > 100 | > 100 | > 100 | 34.2 | 29 | – | – | > 100 | > 100 | – |
| Cc1c(/C=N\NC(=S)N(C)CCN(C)C(=S)N/N=C\c2c(C)n(C)n(-c3ccccc3)c2=O)c(=O)n(-c2ccccc2)n1C | > 100 | – | > 100 | > 100 | > 100 | > 100 | > 100 | – | > 100 | > 100 | > 100 | > 100 | > 100 | > 100 | – | > 100 | > 100 | > 100 | > 100 | > 100 |
| Cc1oc2nc(N(C)C)n3c(C)nnc3c2c1C | > 100 | > 100 | > 100 | – | > 100 | > 100 | > 100 | – | > 100 | – | > 100 | – | > 100 | > 100 | > 100 | > 100 | > 100 | > 100 | > 100 | > 100 |
| COc1ccc(-n2c(-c3ccccc3)cc(-c3cccs3)c2-c2cccs2)cc1 | > 100 | > 100 | 95.7 | > 100 | > 100 | > 100 | > 100 | – | – | > 100 | > 100 | – | > 100 | > 100 | > 100 | > 100 | > 100 | > 100 | > 100 | > 100 |
| c1ccc(NC2(c3nnnn3C3CCCCC3)CCNCC2)cc1 | 33.3 | 32.5 | 52.4 | 31.9 | 62.3 | 43.4 | 40.9 | – | 42.5 | 31.7 | > 100 | – | 79.7 | 43.5 | 30.7 | 51.6 | 30 | 31.3 | 32.2 | > 100 |
| CC(=O)/C(=C\n1c(=S)[nH]c2ccc([N+](=O)[O-])cc21)C(=O)Nc1ccccc1C | – | > 100 | > 100 | > 100 | > 100 | > 100 | > 100 | > 100 | – | > 100 | > 100 | > 100 | > 100 | > 100 | > 100 | > 100 | > 100 | – | – | > 100 |
| COc1ccc2c(c1)CC[C@@H]1C2CC[C@]2(C)C(=O)N(C)C(=O)CC12 (stereo partly specified) | > 100 | > 100 | > 100 | > 100 | > 100 | > 100 | > 100 | > 100 | > 100 | > 100 | > 100 | > 100 | > 100 | > 100 | – | – | > 100 | > 100 | > 100 | – |
| CCOC(=O)c1c(C)n(-c2ccc(C)cc2)c2c1cc(O)c1[nH]c3c(c12)CCCC3 | 77.8 | 33.1 | 67 | > 100 | 60 | 39 | > 100 | 46.6 | 67.5 | 84.5 | > 100 | 52.3 | 99.7 | 22.4 | 30.2 | > 100 | 30.2 | 51.5 | – | > 100 |
| O=C(CC(C(=O)c1ccsc1)c1cccs1)c1ccsc1 (stereo unspecified) | > 100 | > 100 | > 100 | > 100 | > 100 | > 100 | > 100 | > 100 | > 100 | > 100 | > 100 | > 100 | > 100 | > 100 | > 100 | > 100 | – | > 100 | – | > 100 |
| O=C1NCC2=C1CCC1c3ccccc3CCN21 (stereo unspecified) | > 100 | > 100 | > 100 | – | > 100 | > 100 | > 100 | – | > 100 | > 100 | > 100 | – | > 100 | > 100 | > 100 | > 100 | > 100 | > 100 | – | – |
| COc1cccc(/C=N/[N-]C(N)=O)c1[O-].[OH3+].[Zn+2] | > 100 | > 100 | > 100 | > 100 | > 100 | > 100 | > 100 | – | > 100 | > 100 | > 100 | – | > 100 | > 100 | > 100 | > 100 | > 100 | > 100 | – | – |
| O=C1c2cc([N+](=O)[O-])cnc2S(=O)(=O)N1c1ccc(Oc2ccccc2)cc1 | > 100 | > 100 | > 100 | > 100 | > 100 | > 100 | > 100 | – | > 100 | > 100 | > 100 | > 100 | > 100 | > 100 | > 100 | > 100 | – | > 100 | > 100 | > 100 |
| Cc1[nH]c2ncn(N)c(=N)c2c1Cc1ccccc1 | > 100 | > 100 | > 100 | > 100 | > 100 | > 100 | > 100 | > 100 | > 100 | – | > 100 | > 100 | > 100 | > 100 | > 100 | > 100 | > 100 | > 100 | – | > 100 |
| CN(C)c1ccc(C=Nc2ccc(-c3nc4ccccc4o3)cc2)cc1 | > 100 | > 100 | > 100 | > 100 | – | > 100 | > 100 | – | > 100 | 98.7 | > 100 | 97.9 | 87.1 | 78.8 | > 100 | > 100 | > 100 | > 100 | > 100 | > 100 |
| O=[N+]([O-])c1ccc2nc(/C=C(\O)c3ccccc3)c(/C=C(\O)c3ccc(Cl)cc3)nc2c1 | > 100 | – | > 100 | 88.2 | > 100 | – | > 100 | > 100 | > 100 | > 100 | > 100 | > 100 | > 100 | > 100 | – | > 100 | > 100 | > 100 | – | > 100 |
| COC(=O)C(NC(=O)C12CCC(C)(C(=O)O1)C2(C)C)c1cc(C(C)(C)C)c(O)c(C(C)(C)C)c1 (stereo unspecified) | > 100 | > 100 | > 100 | > 100 | > 100 | > 100 | > 100 | – | > 100 | – | > 100 | > 100 | > 100 | > 100 | > 100 | > 100 | > 100 | > 100 | > 100 | > 100 |
